Results reported in US20100144858A1, “Treatment of movement disorders with a metabotropic glutamate 4 receptor positive allosteric modulator” (priority 2003, published 2010).
Entries after “also recorded” stand apart in the source; their conditions may differ. Where two headings read alike, the source gives them in different places.

Columns and labels:
[1] = tested on: reserpine-induced akinesia; assay: Reserpine-induced akinesia model of Parkinson's disease; assay type: in vivo; conditions: rat, 75 nmol icv, reserpine 5 mg/kg sc, beam breaks/30 min
Description: Behavior: Third ventricle cannulated male Sprague-Dawley rats (250-350) were purchased from Taconic Farms (Germantown, N.Y.) with guide cannula implanted such that subsequent placement of an injection cannula allowed for infusion into the third ventricle. These rats were used for intracerebral ventricular (icy) injection of test compounds within one week of arrival to the testing facility. All experiments were carried out during the light cycle (6.00-18.00).
Rats were injected with reserpine (5 mg/kg sc, dissolved in 1% acetic acid) and kept in their home cages for 1.5-2 hr post-injection. Activity was measured by placing rats in photocell activity cages (Hamilton-Kinder, Inc., Poway, Calif.) equipped with 16×16 infrared beams. […] Five min following the injection of test compound or vehicle, motor activity was recorded for an additional 30 min for each rat. Motor activity (cumulative beam breaks/30-min period) was recorded both pre- and post-drug treatment for each rat. […] Post hoc comparisons were performed using the Bonferroni test. Statistical significance was achieved when p<0.05. Data are expressed as mean +/− one SEM.

human mGluR4 [2] = target: T1, human mGluR4 (Homo sapiens, UniProt Q14833); assay: FLIPR Ca2+ flux assay in mGluR4 CHO cells
Description: (§1) Cells expressing mGluR2, mGluR4, mGluR7 and mGluR8 were coexpressed with Gα16, Gαqi5, Gα15 and Gα15, respectively. Cells were evaluated using a fluorometric imaging plate reader (FLIPR, Molecular Devices, Sunnyvale, Calif.), to measure their ability to mobilize Ca^2+ in response to appropriate agonists (i.e., glutamate and L-AP4).
(§2) CHO or HEK cells expressing mGluR receptors (mGluR CHO or HEK cells) were plated (50,000-70,000 cells/well) in clear-bottomed, poly-D-lysine-coated plates (Becton-Dickinson) in glutamate/glutamine-free medium. The plated cells were grown overnight at 37° C. in the presence of 6% CO2. The following day, the cells were washed with 3×100 μl assay buffer (Hanks Balanced Salt Solution containing 20 mM HEPES, 2.5 mM probenecid, and 0.1% bovine serum albumin) using a Skatron Embla cell washer. The cells were incubated with 1 μM Fluo-4AM (Molecular Probes, Eugene, Oreg.) for 1 h at 37° C. and 6% CO2. The extracellular dye was removed by washing as described above. […] Ca^2+ flux was measured using a FLIPR.

human mGluR4 [3] = target: T1, human mGluR4; assay: FLIPR Ca2+ flux assay, human mGluR4; assay type: cell-based; design: expressed in transfected cells; host or cells: CHO or HEK cells, co-expressing Gαqi5; conditions: n=3, read-out: EC50 for L-AP4 activation of human mGluR4
Target sequence in this assay (Q14833 33-912): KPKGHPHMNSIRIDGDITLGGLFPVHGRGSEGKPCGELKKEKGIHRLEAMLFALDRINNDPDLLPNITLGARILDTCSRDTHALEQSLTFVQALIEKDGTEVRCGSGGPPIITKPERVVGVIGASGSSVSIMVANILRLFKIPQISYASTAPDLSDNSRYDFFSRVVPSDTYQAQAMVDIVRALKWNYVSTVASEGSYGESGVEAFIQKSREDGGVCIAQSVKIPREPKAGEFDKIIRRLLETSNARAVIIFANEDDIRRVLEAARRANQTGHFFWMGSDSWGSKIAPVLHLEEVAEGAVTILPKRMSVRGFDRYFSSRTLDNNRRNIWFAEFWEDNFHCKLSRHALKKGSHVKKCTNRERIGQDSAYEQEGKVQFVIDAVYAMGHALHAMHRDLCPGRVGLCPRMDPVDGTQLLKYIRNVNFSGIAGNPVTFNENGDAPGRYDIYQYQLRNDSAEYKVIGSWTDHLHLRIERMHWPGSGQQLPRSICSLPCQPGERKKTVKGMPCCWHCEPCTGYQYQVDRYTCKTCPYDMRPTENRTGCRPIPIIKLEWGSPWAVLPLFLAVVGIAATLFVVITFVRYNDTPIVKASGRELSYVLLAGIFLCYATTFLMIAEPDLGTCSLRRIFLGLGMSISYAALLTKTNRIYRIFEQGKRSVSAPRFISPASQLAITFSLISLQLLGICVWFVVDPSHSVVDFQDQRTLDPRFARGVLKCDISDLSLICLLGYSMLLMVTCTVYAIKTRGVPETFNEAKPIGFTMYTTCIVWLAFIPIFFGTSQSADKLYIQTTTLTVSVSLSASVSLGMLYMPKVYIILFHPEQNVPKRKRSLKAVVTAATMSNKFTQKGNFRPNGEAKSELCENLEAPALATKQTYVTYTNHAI
Description: as §1, §2

striato-pallidal synapse = assay: Brain slice whole-cell patch-clamp, evoked IPSCs at striato-pallidal synapse; design: species or system rat; conditions: for effect on striato-pallidal transmission, compound alone: L-AP4 1 μM, PHCCC 30 μM, rat brain slice
Description: Animals: All studies were performed in an AAALAC accredited facility in accordance with all applicable guidelines regarding the care and use of animals. Animals were group housed with access to food and water ad libitum. Slice Preparation: All experiments were performed on slices from 26 to 30-d-old Sprague Dawley rats (Taconic, Germantown, N.Y.). Animals were killed by decapitation and brains were rapidly removed and submerged in an ice-cold solution containing (in mM): choline chloride 126, KCl 2.5, NaH2PO4 1.2, MgCl2 1.3, MgSO4 8, glucose 10, and NaHCO3 26, equilibrated with 95% O2/5% CO2 (11). The brain was glued to the chuck of a vibrating blade microtome (Leics Microsystems, Nussloch GmbH) and parasagittal slices (300 μm thick) were obtained. Slices were immediately transferred to a 500 ml holding chamber containing artificial cerebrospinal fluid (in mM): NaCl 124, KCl 2.5, MgSO4 1.3, NaH2PO4 1.0, CaCl2 2, glucose 20, and NaHCO3 26, equilibrated with 95% O2/5% CO2 that was maintained at 32° C. After 20-min at 32° C., the holding chamber was allowed to gradually decrease to room temperature. In all experiments 5 μM glutathione, 500 μM pyruvate, and 250 μM kynurenic acid were included in the choline chloride buffer and in the holding chamber ACSF. Electrophysiology: Whole-cell patch-clamp recordings were obtained (Marino et al., (2001) J. Neurosci. 21: 7001-7012. During recording, slices were maintained fully submerged on the stage of a 1 ml brain slice chamber at 32° C. and perfused continuously with equilibrated ACSF (2-3 ml/min). Neurons were visualized using a differential interference contrast microscope and an infrared video system. Patch electrodes were pulled from borosilicate glass on a two-stage puller and had resistances in the range of 3-7 MΩ when filled with the following internal solution: (in mM): potassium gluconate 125, NaCl 4, NaH2PO4 6, CaCl2 1, MgSO4 2, BAPTA-tetrapotassium salt 10, HEPES 10, Mg-ATP 2, Na2-GTP 0.3, pH=7.4. All recordings were done using HEKA EPC9 patch clamp amplifiers (HEKA Elektronik, Lambrecht/Pfalz, Germany). […]

rat mGluR4 = target: T2, rat mGluR4 (Rattus norvegicus, UniProt P31423); assay: FLIPR Ca2+ flux assay, rat mGluR4; assay type: cell-based; conditions: n=3, read-out: EC50 for L-AP4 activation of rat mGluR4
T2 construct: expressed in transfected cells; host or cells: CHO or HEK cells, co-expressing Gαqi5
T2 sequence (P31423 33-912): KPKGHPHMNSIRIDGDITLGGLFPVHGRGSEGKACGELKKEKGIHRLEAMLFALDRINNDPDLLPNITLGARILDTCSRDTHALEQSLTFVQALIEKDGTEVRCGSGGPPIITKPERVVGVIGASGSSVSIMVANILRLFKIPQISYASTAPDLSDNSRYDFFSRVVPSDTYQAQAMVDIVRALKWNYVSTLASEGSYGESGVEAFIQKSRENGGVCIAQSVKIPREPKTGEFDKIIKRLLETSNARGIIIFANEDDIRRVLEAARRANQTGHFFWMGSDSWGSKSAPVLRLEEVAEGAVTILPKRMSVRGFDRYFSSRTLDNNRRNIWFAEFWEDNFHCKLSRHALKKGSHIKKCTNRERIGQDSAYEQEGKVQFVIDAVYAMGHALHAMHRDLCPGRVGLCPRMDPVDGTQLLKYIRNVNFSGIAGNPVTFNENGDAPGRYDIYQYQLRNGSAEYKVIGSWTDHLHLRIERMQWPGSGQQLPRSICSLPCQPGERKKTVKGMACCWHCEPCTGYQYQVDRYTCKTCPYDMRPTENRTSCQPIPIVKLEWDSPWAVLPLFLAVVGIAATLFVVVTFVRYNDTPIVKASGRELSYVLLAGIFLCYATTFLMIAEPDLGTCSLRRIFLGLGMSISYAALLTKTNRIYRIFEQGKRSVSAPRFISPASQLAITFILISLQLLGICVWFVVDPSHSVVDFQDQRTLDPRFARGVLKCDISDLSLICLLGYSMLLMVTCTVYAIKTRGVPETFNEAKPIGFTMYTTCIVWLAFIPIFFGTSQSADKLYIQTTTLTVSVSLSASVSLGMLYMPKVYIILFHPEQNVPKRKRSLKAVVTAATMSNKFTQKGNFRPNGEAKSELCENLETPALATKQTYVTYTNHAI

mGluR1b = target: T3, mGluR1b (Homo sapiens, UniProt Q13255); assay: FLIPR Ca2+ flux assay, mGluR1b antagonism; assay type: cell-based; conditions: 10 μM
T3 construct: expressed in transfected cells; host or cells: CHO or HEK cells
T3 sequence (Q13255 19-906 isoform Q13255-2 limits assumed): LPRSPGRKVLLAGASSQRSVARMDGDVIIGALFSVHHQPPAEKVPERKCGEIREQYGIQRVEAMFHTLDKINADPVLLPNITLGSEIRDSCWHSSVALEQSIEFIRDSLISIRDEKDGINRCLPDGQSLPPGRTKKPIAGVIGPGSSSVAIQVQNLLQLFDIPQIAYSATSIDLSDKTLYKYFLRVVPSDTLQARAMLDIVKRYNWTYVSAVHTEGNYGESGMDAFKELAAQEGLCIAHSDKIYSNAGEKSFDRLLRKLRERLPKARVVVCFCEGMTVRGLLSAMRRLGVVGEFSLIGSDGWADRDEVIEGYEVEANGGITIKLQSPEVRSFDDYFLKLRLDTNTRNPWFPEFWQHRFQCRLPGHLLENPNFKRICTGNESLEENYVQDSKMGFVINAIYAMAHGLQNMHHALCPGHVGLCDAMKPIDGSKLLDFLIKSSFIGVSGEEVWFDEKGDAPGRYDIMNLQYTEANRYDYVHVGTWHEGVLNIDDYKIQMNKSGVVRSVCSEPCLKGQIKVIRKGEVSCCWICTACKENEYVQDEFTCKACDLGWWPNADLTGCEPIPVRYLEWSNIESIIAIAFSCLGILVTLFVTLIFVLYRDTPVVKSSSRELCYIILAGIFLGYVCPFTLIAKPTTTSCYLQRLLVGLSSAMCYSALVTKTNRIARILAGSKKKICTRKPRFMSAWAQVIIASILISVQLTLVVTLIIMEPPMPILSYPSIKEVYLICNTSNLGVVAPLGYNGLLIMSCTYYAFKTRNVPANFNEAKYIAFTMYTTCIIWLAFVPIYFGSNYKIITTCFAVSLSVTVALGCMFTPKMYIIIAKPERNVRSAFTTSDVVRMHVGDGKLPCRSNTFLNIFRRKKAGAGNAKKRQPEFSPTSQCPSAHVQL

mGluR5a = target: T4, mGluR5a (Homo sapiens, UniProt P41594); assay: FLIPR Ca2+ flux assay, mGluR5a antagonism; assay type: cell-based; conditions: 10 μM
T4 construct: expressed in transfected cells; host or cells: CHO or HEK cells

[4] = tested on: Schaffer collateral-CA1 (SC-CA1) synapse (mGluR7); assay: Hippocampal field recordings (fEPSPs), SC-CA1 synapse; design: species or system rat; conditions: submaximal L-AP4; fEPSP slope
any other mGluR subtype = assay: FLIPR Ca2+ flux assay, other mGluR subtypes (activation or potentiation); assay type: cell-based; conditions: 10 μM
mGluR8 = target: T5, mGluR8 (Homo sapiens, UniProt O00222); assay: FLIPR Ca2+ flux assay, mGluR8 antagonism; assay type: cell-based; conditions: 10 μM
T5 construct: expressed in transfected cells; host or cells: CHO or HEK cells, co-expressing Gα15
T5 sequence (O00222 34-908, species assumed): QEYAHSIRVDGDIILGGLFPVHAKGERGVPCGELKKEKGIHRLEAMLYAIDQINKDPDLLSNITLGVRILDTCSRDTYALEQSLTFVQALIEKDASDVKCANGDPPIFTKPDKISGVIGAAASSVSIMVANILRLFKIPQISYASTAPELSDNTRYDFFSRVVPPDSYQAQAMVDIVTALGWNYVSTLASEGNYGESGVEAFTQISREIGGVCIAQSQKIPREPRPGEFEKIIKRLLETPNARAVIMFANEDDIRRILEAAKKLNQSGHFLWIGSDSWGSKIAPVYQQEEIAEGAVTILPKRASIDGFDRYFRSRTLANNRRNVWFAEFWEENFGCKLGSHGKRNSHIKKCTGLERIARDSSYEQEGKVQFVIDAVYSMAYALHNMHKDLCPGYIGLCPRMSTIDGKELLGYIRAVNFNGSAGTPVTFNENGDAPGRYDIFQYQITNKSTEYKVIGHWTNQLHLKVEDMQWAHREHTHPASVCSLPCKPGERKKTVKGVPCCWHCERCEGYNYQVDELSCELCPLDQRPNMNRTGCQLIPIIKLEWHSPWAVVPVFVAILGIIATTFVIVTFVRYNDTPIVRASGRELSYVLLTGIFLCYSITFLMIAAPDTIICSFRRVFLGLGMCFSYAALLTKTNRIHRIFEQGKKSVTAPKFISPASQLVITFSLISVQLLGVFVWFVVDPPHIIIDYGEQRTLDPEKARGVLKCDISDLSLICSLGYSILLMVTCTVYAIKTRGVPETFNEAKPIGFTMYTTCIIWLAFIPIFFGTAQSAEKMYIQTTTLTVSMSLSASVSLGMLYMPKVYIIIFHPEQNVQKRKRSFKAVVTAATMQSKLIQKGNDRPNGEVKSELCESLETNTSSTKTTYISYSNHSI

mGluR2 = target: T6, mGluR2 (Homo sapiens, UniProt Q14416); assay: FLIPR Ca2+ flux assay, mGluR2 antagonism; assay type: cell-based; conditions: 10 μM
T6 construct: expressed in transfected cells; host or cells: CHO or HEK cells, co-expressing Gα16
T6 sequence (Q14416 19-872): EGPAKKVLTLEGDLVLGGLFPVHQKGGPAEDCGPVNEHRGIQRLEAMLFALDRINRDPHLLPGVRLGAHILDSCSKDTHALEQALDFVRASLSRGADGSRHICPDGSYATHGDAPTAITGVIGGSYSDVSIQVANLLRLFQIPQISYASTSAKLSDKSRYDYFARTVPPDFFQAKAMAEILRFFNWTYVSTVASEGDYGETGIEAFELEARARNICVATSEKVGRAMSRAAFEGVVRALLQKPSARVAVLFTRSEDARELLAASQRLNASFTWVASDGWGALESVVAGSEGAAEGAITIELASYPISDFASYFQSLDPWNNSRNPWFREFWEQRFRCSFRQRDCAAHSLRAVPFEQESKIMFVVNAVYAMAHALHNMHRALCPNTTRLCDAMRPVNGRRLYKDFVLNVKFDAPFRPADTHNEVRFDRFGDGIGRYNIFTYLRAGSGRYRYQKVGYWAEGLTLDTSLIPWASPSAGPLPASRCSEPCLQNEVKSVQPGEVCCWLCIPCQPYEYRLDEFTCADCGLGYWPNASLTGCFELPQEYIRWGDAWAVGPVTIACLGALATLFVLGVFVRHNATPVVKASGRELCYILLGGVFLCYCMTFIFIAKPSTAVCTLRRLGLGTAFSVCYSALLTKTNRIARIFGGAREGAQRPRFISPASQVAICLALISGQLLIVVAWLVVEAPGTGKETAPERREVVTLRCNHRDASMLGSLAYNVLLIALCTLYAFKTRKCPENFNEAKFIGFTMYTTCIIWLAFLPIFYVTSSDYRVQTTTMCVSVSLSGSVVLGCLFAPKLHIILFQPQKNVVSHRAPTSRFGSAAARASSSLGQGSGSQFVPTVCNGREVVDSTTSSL

[5] = tested on: lateral perforant path-dentate gyrus (LPP-DG) synapse (mGluR8); assay: Hippocampal field recordings (fEPSPs), LPP-DG synapse; design: species or system rat; conditions: submaximal L-AP4; fEPSP slope
mGluR4 = assay: FLIPR Ca2+ flux assay in mGluR4 CHO cells; conditions: in the presence of 10 μM PHCCC
Description: as §1, §2

Compound | locomotor activity (reversal of reserpine-induced akinesia) [1] | effect on the response of mGluR4 to agonists (potentiation) (human mGluR4 [2]; concentrations up to 30 μM) | IC50 (human mGluR4 [2]; read-out: mGluR4 antagonist IC50, at higher concentrations) [µM] | EC50 (human mGluR4 [3]; in the absence of PHCCC) [µM] | EC50 (human mGluR4 [3]; with 10 μM PHCCC) [µM] | effect on striato-pallidal transmission, compound alone (striato-pallidal synapse) | EC50 (rat mGluR4; with 10 μM PHCCC) [µM] | EC50 (rat mGluR4; without PHCCC) [µM] | block of response of mGluR1b to glutamate (mGluR1b) | effect on striato-pallidal transmission, co-application with L-AP4 (striato-pallidal synapse; 30 μM PHCCC and 1 μM L-AP4, p<0.01, n=4) | block of response of mGluR5a to glutamate (mGluR5a) | effect on L-AP4-induced inhibition of transmission at SC-CA1 synapse [4] | activation or potentiation of responses of other mGluR subtypes (any other mGluR subtype) | block of response of mGluR8 to glutamate (mGluR8) | block of response of mGluR2 to glutamate (mGluR2) | effect on L-AP4-induced inhibition of transmission at LPP-DG synapse [5] | increase of the maximal effect of L-AP4 (mGluR4)
7-(hydroxylimino)cyclopropa[b]chromen-1a-carboxamide ethyl ester [CPCCOEt] | no effect | no mGluR4 potentiator activity; also recorded: did not have any effect | > 100 | – | – | – | – | – | – | – | – | – | – | – | – | – | –
NC(CCP(=O)(O)O)C(=O)O [L-AP4] | – | – | – | 0.484 ± 0.045 | 0.0714 ± 0.0029 | small but significant inhibition | 0.0676 ± 0.0052 | 0.832 ± 0.1 | – | – | – | – | – | – | – | – | –
N-phenyl-7-(hydroxylimino)cyclopropa[b]chromen-1a-carboxamide [PHCCC] | overcome inhibition of movement; also recorded: significant increase in locomotor activity | – | – | – | – | no effect | – | – | partially blocked | potentiate the effect of the mGluR4 agonist L-AP4 in inhibiting transmission; also recorded: marked inhibition | partially blocked | no significant effect | does not potentiate or activate any other mGluR subtype; also recorded: did not activate or potentiate | partially blocked | partially blocked | no significant effect | approximately two-fold
